# Legend:
# α7 nAChR and NMDAR = experiment: Functional recovery: 45Ca2+ entry into frontal cortex synaptosomes via α7 and NMDA receptors; type: biochemical, human
# Description: FIG. 5: Quantification of the entry of ^45Ca^2+ into human frontal cortex synaptosomes obtained post-mortem from Alzheimer's disease patients and from control subjects and treated with S 24795. The control brain slices are incubated in the presence of Aβ42 (1 μM)—or not—prior to the treatment with S 24795 (10 μM). Calcium entry is brought about either by α7 agonist (PNU282987) or by NMDA added to glycine.
# The functional recovery experiments are carried out using brains according to I.2 obtained from patients according to I.1.
# The functional recovery brought about by the treatment with S 24795 (10 μM) is evaluated with reference to the calcium influx via α7 and NMDA receptors. It was tested after 1 hour of treatment with S 24795 on control brains exposed to Aβ42 (30 minutes) and on brains of Alzheimer's disease patients. The treatments using Aβ42 (1 μM) and S 24795 (10 μM) are carried out on slices of cortex obtained from those brains. Synaptosomes are then prepared as described in I.4. In order to evaluate the Ca^2+ influxes via the α7 and NMDA receptors, the synaptosomes are incubated in the presence of ^45Ca^2+ (5 μM) for 5 minutes at 37° C. in Krebs-Ringer medium. The Ca^2+ fluxes are brought about for α7 selective α7nAChR receptor agonist, PNU282987 (0.1, 1 and 10 μM), and for the NMDAR receptors by the addition of NMDA (0.1, 1, 10 μM) and glycine (1 μM). The reaction is stopped by the addition of Krebs-Ringer (4° C.) containing EGTA but not containing calcium. After two washings, the synaptosomes are lysed by sonication in ethanol (95%) and the radioactivity is counted by liquid scintillation spectrometry. The specificity of the calcium influxes is checked by means of the addition of selective inhibitors of the α7 receptor (α-bungarotoxin) and of the NMDA receptor (AP-5).
# Aβ42-α7 nAChR complexes [1] = molecular target: T1, Aβ42-α7 nAChR complexes (Homo sapiens, UniProt P36544); experiment: Inhibition of formation of Aβ42-α7 nAChR complexes in post-mortem frontal cortex synaptosomes (immunoprecipitation, Western blot); type: binding; conditions: S 24795 30 μM added before Aβ peptides (Aβ42 100 nM); non-diseased control human cortex synaptosomes
# T1 construct: dissociation of the complexes already present in the diseased human tissues; tissue Harvard Brain Tissue Resource Center and Analytical Biological Services; host or cells: post-mortem frontal cortex synaptosomes of Alzheimer's disease patients
# T1 sequence (P36544 23-502, one chain of several): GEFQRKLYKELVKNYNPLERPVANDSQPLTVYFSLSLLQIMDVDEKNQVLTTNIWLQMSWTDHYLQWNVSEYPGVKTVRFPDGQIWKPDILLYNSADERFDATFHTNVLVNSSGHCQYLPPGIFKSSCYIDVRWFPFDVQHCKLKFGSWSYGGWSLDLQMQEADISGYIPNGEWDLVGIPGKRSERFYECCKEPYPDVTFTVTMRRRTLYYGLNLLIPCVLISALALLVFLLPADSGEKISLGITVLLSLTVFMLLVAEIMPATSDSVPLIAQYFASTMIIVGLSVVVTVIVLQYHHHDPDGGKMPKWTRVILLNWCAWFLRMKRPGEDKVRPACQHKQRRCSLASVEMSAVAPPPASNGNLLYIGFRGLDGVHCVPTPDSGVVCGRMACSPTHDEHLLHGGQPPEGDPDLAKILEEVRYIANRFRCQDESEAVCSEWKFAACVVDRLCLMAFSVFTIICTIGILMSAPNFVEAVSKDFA
# Description: FIG. 1: Western blot illustrating the inhibition, by S 24795, of Aβ42-α7 nAChR complexes obtained post-mortem from frontal cortex synaptosomes of Alzheimer's disease patients or control subjects. The Aβ42-α7 nAChR complexes are incubated in the medium (Krebs-Ringer) on its own or in the presence of S 24795 (30 μM) for 10 minutes, followed by incubation in the presence of Aβ42 peptide for 30 minutes.
# FIG. 2: Quantification of the inhibition of the formation of Aβ42-α7 nAChR complexes in human frontal cortex synaptosomes obtained post-mortem from Alzheimer's disease patients and control subjects and incubated with S 24795 (30 μM)—or not—and then with Aβ42 peptides (100 nM). *: p<0.01 for controls and Alzheimer's disease patients, Newman-Keuls test for multiple comparisons.
# (§1) 100 mg of post-mortem frontal cortex ground on ice are homogenised in 10 volumes of 10 mM HEPES pH 7.4 maintained on ice and oxygenated in the presence of […] sucrose and 0.1 mM EDTA and then mixed in a Teflon/glass tissue grinder at 4° C. in a homogenisation solution containing 25 mM HEPES pH 7.5, 1 mM EDTA, 50 μg/ml of leupeptin, 10 μg/ml of aprotinin, 2 μg/ml of soy trypsin inhibitor, 0.04 mM PMSF, a mixture of phosphatase inhibitor proteins, and 0.2% […].
# The homogenate is centrifuged, firstly, at 1000 g and 4° C. for 10 minutes. […]
# Aβ42-α7 nAChR complexes [2] = molecular target: T1, Aβ42-α7 nAChR complexes; experiment: Dissociation of Aβ42-α7 nAChR complexes already present in frontal cortex synaptosomes of Alzheimer's disease patients (immunoprecipitation, Western blot); type: binding
# Description: FIG. 3: Western blot illustrating the dissociation, caused by S 24795, of Aβ42-α7 nAChR complexes obtained post-mortem from frontal cortex synaptosomes of Alzheimer's disease patients or control subjects. The Aβ42-α7 nAChR complexes are incubated in the medium (Krebs-Ringer) on its own or in the presence of S 24795 (1, 10, 30 or 100 μM) for 10 minutes and then in the presence or absence of Aβ42 (100 nM).
# FIG. 4: Quantification of the dissociation of the interaction of α7 nAChR receptors associated with Aβ42 in human frontal cortex synaptosomes obtained post-mortem from Alzheimer's disease patients and control subjects and incubated with S 24795 (from 1 to 100 μM) and then in the presence or absence of Aβ42 (100 nM). *: p<0.01 for controls and Alzheimer's disease patients, Newman-Keuls test for multiple comparisons.
# as §1
# The homogenate is centrifuged, firstly, at 1000 g and 4° C. for 10 minutes. The supernatant obtained in that first centrifugation is centrifuged for a second time at 15000 g for 30 minutes to obtain a sediment of synaptosomes.
# The sediment of synaptosomes is washed twice by suspension in 10 ml of Krebs-Ringer solution, maintained on ice, comprising 25 mM HEPES pH 7.4, 118 mM NaCl, 4.8 mM KCl, 25 mM NaHCO3, 1.3 mM CaCl2, 1.2 mM MgSO4, 1.2 mM KH2PO4, 10 mM glucose, 100 μM ascorbic acid, 50 μg/ml of leupeptin, 10 μg/ml of aprotinin, 2 μg/ml of soy trypsin inhibitor, 0.04 mM PMSF and a mixture of phosphatase inhibitor proteins, aerated for 10 minutes using 95% O2/5% CO2 and then centrifuged again at 15000 g for 10 minutes at 4° C. The washed synaptosomes are then suspended in 1 ml of oxygenated Krebs-Ringer solution and the protein concentration of said synaptosome suspension is determined by the Bradford method.
# The human cortex synaptosomes are incubated in an oxygenated Krebs-Ringer solution in the presence of the compound S 24795 at 37° C. for 30 minutes in a total incubation volume of 500 μl. The compound S 24795 is present in the reaction mixture at a concentration of 1 μM, 10 μM, 30 μM or 100 μM. Depending on the experiments being carried out, the synaptosomes are also incubated in the presence of 100 nM Aβ42 or in the presence of the vehicle. […]
substance,measurement,setting,value
1-(4-bromophenyl)-2-(1-methyl-2-pyridiniumyl)-1-ethanone chloride or iodide [S 24795],Ca2+ entry level as % of the control values without Aβ,"α7 nAChR and NMDAR; after S 24795 10 μM, brains of Alzheimer's disease patients and of controls pretreated with Aβ (comparable levels)",about 65%
same,increase in Ca2+ entry compared to the brains of untreated Alzheimer's disease patients,"α7 nAChR and NMDAR; brains of Alzheimer's disease patients, S 24795 10 μM for 1 hour",~75%
same,re-establishment of Ca2+ entry,"α7 nAChR and NMDAR; control brain slices exposed to Aβ42 (1 μM), then S 24795 10 μM for 1 hour",substantial re-establishment
same,reduction of the amount of Aβ42-α7 nAChR complexes formed,Aβ42-α7 nAChR complexes [1],92%
same,reduction in the Aβ42-α7 nAChR complexes previously present in the diseased brain extracts,"Aβ42-α7 nAChR complexes [2]; S 24795 1 μM, absence of exogenous Aβ peptides, Alzheimer's disease synaptosomes",about 22%
same,reduction in the Aβ42-α7 nAChR complexes previously present in the diseased brain extracts,"Aβ42-α7 nAChR complexes [2]; S 24795 10, 30 and 100 μM, absence of exogenous Aβ peptides, dose-dependent",substantial
same,reduction of non-dissociated Aβ42-α7 nAChR complexes,"Aβ42-α7 nAChR complexes [2]; S 24795 at the highest concentration (100 μM), absence of exogenous Aβ peptides, Alzheimer's disease synaptosomes, p<0.01",~63%
same,reduction in the amount of Aβ42-α7 nAChR complexes present in the diseased brains,"Aβ42-α7 nAChR complexes [2]; synaptosomes from cortices of Alzheimer's disease patients, S 24795 30 μM, Aβ peptides added (FIG. 1)",substantial reduction

# From patent publication US20100197740A1, “Method of Screening Compounds Having Anti-Amyloid Properties” (LES LABORATOIRES SERVIER, priority 2006, published 2010)
